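Method: 48-hour compound exposure of cells in 96-well plates, five concentrations, linear interpolation of endpoints. Here, GI50 denotes the concentration required for 50% inhibition of growth. TGI denotes the concentration required for complete inhibition of growth.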 Where a SMILES comes first, the peptide text is derived from it. The star is where a group is joined. Trt = c1ccc(C(c2ccccc2)(c2ccccc2)*)cc1; Cbz = O=C(OCc1ccccc1)*
Columns and labels:
Assay in all cases: growth of human tumour cells (NCI), 48 h
[1] = system: ACHN renal
[2] = system: BT-549 breast
[3] = system: COLO 205 colon
[4] = system: HL-60(TB) leukemia
[5] = system: KM12 colon
[6] = system: SK-MEL-2 melanoma
[7] = system: SK-MEL-28 melanoma
[8] = system: SNB-19 CNS
[9] = system: SW-620 colon
[10] = system: T-47D breast

Row | Compound | GI50 [1] [µM] | TGI [1] [µM] | GI50 [2] [µM] | TGI [2] [µM] | GI50 [3] [µM] | TGI [3] [µM] | GI50 [4] [µM] | TGI [4] [µM] | GI50 [5] [µM] | TGI [5] [µM] | GI50 [6] [µM] | TGI [6] [µM] | GI50 [7] [µM] | TGI [7] [µM] | GI50 [8] [µM] | TGI [8] [µM] | GI50 [9] [µM] | TGI [9] [µM] | GI50 [10] [µM] | TGI [10] [µM]
1 | Cc1cc(Nc2nc(-c3ccncc3)nc3ccccc23)n[nH]1 | 1.06 | > 100 | 9.09 | > 100 | 2.17 | 6.4 | 10.7 | > 100 | 0.335 | > 100 | 34.3 | > 100 | 88.8 | > 100 | 83.1 | > 100 | 3.71 | > 100 | 5 | > 100
2 | O=C(/C=C/c1cccc2ccccc12)Nc1ncc(Cc2ccccc2)s1 | 1.95 | 6.02 | 2.44 | > 100 | 1.48 | > 100 | 0.669 | 3.58 | 0.866 | > 100 | 1.41 | > 100 | 3.89 | > 100 | 0.971 | > 100 | 0.737 | > 100 | 0.894 | > 100
3 | CN1CCN(c2ccc3nc(-c4ccc(OCCCCN5CCN(CCCCN6C(=O)c7cccc8cccc(c78)C6=O)CC5)cc4)[nH]c3c2)CC1 | 25.6 | 64.1 | 40.4 | > 100 | 96.8 | > 100 | 25.1 | > 100 | 43.8 | > 100 | 95.6 | > 100 | 19.4 | 49.9 | > 100 | > 100 | 39.2 | > 100 | 31.2 | > 100
4 | O=C1C=C(N2CCN(CCOCCO)CC2)C(=O)c2c(O)ccc(O)c21 |  | 20.1 |  | 25.5 |  | 2.86 |  | > 29.2 |  | 26.5 |  | 18.5 |  | 32.7 |  | 33.7 |  | 6.48 |  | 18.4
5 | O=C1/C(=C\c2ccccc2)C2OCC=C3CN4CCC56c7ccccc7N1C5C2C3CC46 (stereo not given) | 7.98 | > 100 | 34.2 | > 100 | 17.3 | > 100 | 3.47 | 20.9 | 34.4 | > 100 | 3.78 | 18.4 | 2.61 | 5.44 | > 100 | > 100 | > 100 | > 100 | 64.8 | > 100
6 | COC(=O)C(CSC(c1ccccc1)(c1ccccc1)c1ccccc1)NC(=O)C(CC(N)=O)NC(=O)OCc1ccccc1 (stereo not drawn) (Cbz-Asn-Cys(Trt)-OMe; configuration not given here) | 5.11 | 22.4 | 14.8 | 35.7 | 1.64 | 3.4 | 2.1 | 4.39 | 4.62 | 17 | 2.12 | 5.49 | 3.42 | 15.4 | 5.22 | 18.9 | 7.34 | 23.7 | 2.13 | 8.33
7 | COc1cccc2c1cc1c3c(cc4c(c32)OCO4)C(=O)N1 | 3.76 | 15.4 | 2.08 | 4.74 | 2.3 | 5.39 | 7.59 | 27.8 | 4.09 | 23.7 | 16.5 | 44.2 | 13.1 | 67.2 | 6.37 | > 100 | 4.4 | > 100 | 2.33 | 6.81
8 | O=C(C=C=Nc1ccccc1)C(=O)N=C=Cc1ccccc1 | 1.76 | 4.6 | 2.59 | 9.2 | 1.89 | 3.87 | 1.7 | 6.98 | 6.38 | 19.1 | 1.49 | 8.36 | 1.88 | 3.85 | 31.6 | > 60.7 | 1.72 | 3.61 | 1.62 | 3.94
9 | CN(C(=O)CNC(=O)/C=C/c1cccc(Cl)c1)C1CCS(=O)(=O)CC1 | 46.4 | > 100 | 6.09 | > 100 | 1.1 | > 100 | 2.07 | > 100 | 7.99 | > 100 | 15.6 | > 100 | 59.3 | > 100 | > 100 | > 100 | 3.51 | > 100 | 7.36 | > 100
10 | COc1cc(Cn2c(-c3ccccc3)cc3c2-c2oncc2CC3)cc(OC)c1 | 0.786 | > 100 | 0.9 | > 100 | 0.256 | 0.653 | 0.264 | 2.73 | 0.313 | 9.76 | 81.2 | > 100 | 0.416 | > 100 | 0.562 | > 100 | 0.36 | > 100 | > 100 | > 100
11 | CN=C(N)N/N=C(\C)c1ccc2c(c1)Cc1ccccc1-2 | 1.78 | 3.61 | 10.2 | 27.9 | 1.66 | 3.02 | 0.399 | 1.94 | 1.72 | 3.47 | 1.87 | 3.81 | 2.22 | 4.63 | 3.46 | 21.8 | 1.43 | 3.29 | 1.32 | 2.92
12 | NS(=O)(=O)c1ccc(NC(=O)c2cccc(NC3=C(Cl)C(=O)N(Cc4ccccc4)C3=O)c2)cc1 | 14.7 | 33.2 | 5.31 | 21.3 | 22.6 | 85.8 | 2.02 | 6.01 | 6.83 | 26.5 | 10.3 | 33.2 | 20 | 42.9 | 27.1 | > 100 | 6.1 | 44.4 | 33.7 | > 100
13 | COc1ccc2c(c1)/C(=N/OC(C)=O)c1c-2cnc2ccccc12 | 20.4 | 45.4 | 49.5 | > 100 | 26.5 | 94.7 | 19.6 | 67 | 25 | 78.7 | 26.9 | 64.6 | 31.6 | 77.2 | 36.6 | > 100 | 67.1 | > 100 | 19.9 | 66.3
14 | Cc1c(Cl)c(C)c(Cc2c(C)c(Cl)c(C)c(Cl)c2O)c(O)c1Cl | 2.32 | 6.88 | 2.37 | 8.33 | 3.04 | 9.24 | 2.92 | 11.2 | 3.34 | 11.4 | 2.85 | 9.73 | 3.14 | 14 | 3.15 | 13.8 | 3.14 | 13.5 | 2.11 | 8.76
15 | H-QIYKKYRTWYRKAWKVLGKV-NH2 | 12 | 25.5 | 5.36 | 27.2 | 4.3 | 80.7 | 2.84 | 8.76 | 2.97 | 9.37 | 16.5 | 49.8 | 4.89 | 22.5 | 17.5 | 68.6 | 13 | 43.6 | 2.06 | 5.2
16 | O=C(/C=C/c1ccc([N+](=O)[O-])cc1)c1cccc(Nc2nc(Nc3ccccc3)nc(Nc3ccccc3)n2)c1 | 27 | > 100 | 27 | > 100 | 13 | 61.2 | 8.82 | 37.7 | 5.04 | 29.5 | 17.7 | 54.6 | 12.5 | 40.1 | 79.8 | > 100 | 4.08 | 65.9 | 9.75 | > 100
17 | CCCCCCCCCCCCCCCCOCC(O)CO (stereo not given) |  | 33.6 |  | 47 |  | 50.8 |  | 23.4 |  | 32.1 |  | 40.1 |  | 33.3 |  | 52.4 |  | 41.2 |  | 46.2
18 | COc1ccc(C2=Nc3c/c(=C\c4c(O)[nH]c5cc(Cl)ccc45)ccc3=N2)cc1 | 17.3 | 41.3 | 3.65 | 18.3 | 7.19 | 21 | 1.97 | 4.84 | 2.49 | 14.2 | 8.86 | 26.6 | 1.55 | 19.9 | 15.1 | 41.1 | 3.01 | 19 | 10.7 | 29.8
19 | COC(=O)/C(=N\Nc1nnc(C)n1N)C(C#N)c1ccccc1 (stereo not given) |  | > 71.1 |  | > 100 |  | > 100 |  | > 100 |  | > 100 |  | > 100 |  | > 100 |  | > 100 |  | > 100 |  | > 100
